# Key:
# CXCR3 = target: T1, CXCR3 (Homo sapiens, UniProt P49682); experiment: NanoBRET screen HiBiT-CXCR3 in HEK293; format: binding; conditions: CXCR3
# T1 construct: purchased Promega (in-house HiBiT-GPCR construct library, NanoBRET)
# T1 sequence (P49682 1-368): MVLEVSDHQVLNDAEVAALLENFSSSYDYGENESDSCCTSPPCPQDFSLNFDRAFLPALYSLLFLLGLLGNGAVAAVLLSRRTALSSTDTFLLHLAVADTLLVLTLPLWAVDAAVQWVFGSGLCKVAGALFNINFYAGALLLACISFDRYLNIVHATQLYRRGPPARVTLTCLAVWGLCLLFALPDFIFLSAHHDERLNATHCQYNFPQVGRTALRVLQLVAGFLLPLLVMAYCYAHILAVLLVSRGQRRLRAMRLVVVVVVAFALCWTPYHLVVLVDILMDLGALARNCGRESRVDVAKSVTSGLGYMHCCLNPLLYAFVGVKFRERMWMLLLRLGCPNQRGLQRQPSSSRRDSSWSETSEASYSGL
# Procedure: (§1) Each tracer candidate was screened across the entire library of HiBiT-GPCR constructs using NanoBRET as the detection modality. As depicted in Figure 4A, the specificity of interactions was evaluated through decrease in BRET due to competitive displacement of a bound tracer by excess parental compound. Each tracer was analyzed for binding to each HiBiT-GPCR fusion in the absence and in the presence of competing parental compound. Briefly, HEK293 cells were transfected with HiBiT-GPCR constructs diluted into promoterless DNA to reduce expression and maximize translocation to the cell surface. Each tracer candidate was then screened at concentrations of 1 μM and 0.1 μM across cells expressing these fusions. Cells were treated for 1.5 h with tracer either alone or in the presence of 20 μM competing parental compound (i.e., control). BRET was measured upon addition of purified LgBiT and subsequent complementation with HiBiT genetically fused to a GPCR. The specificity of interactions was assessed through a decrease in BRET signal due to competitive displacement of the bound tracer. To further gauge the robustness of these interactions, the fold response over the control (i.e., BRETtracer/BRETcontrol) was calculated. We chose a 1.5-fold response, which translates to ≥7-fold signal over noise as the minimal threshold required to score an interaction as positive. […]. Below we highlight the screening results obtained for our exemplary fluorescent tracers based on Clozapine, Amitriptyline and AZD1283.
# (§2) HiBiT-GPCR DNA constructs were diluted in 10 mM Tris pH 8 to a final concentration of 0.01 μg/μL, arrayed in 96-well plates and stored at −20 °C. For transfection, HEK293 cells were suspended in Opti-MEM (without phenol red) supplemented with 2% fetal bovine serum (Seradigm) and 100 units/mL penicillin–streptomycin (Gibco) at a final concentration of 220,000 cells/mL and dispensed into white 96-well plates at 90 μL/well. Subsequent transfections and screens were carried using an Agilent Bravo Automated Liquid Handling Platform. First, the 96-well HiBiT DNA arrays were diluted 25-fold in Opti-MEM (without serum or phenol red) to a final concentration of 0.0004 μg/μL and 20 μL of the diluted DNAs were transferred into new 96-well plates. Next, promoterless carrier DNA (1 μg/μL) was diluted 25-fold (0.04 μg/μL) and then dispensed into the diluted arrays at 20 μL/well. Following brief mixing, Viafect transfection reagent (Promega) diluted 16-fold into Opti-MEM was dispensed into the plates at 40 μL/well. After mixing by pipetting, plates were incubated for 10 min on the pipetting station deck. The DNA-transfection reagent complexes were then added to plates containing cells. To facilitate the screen, 10 μL of DNA-transfection reagent complexes were added in duplicates to the top 4 and bottom 4 rows, resulting in two identical 48-well arrays per plate. Plates with transfected cells were incubated for 18–20 h at 37 °C/5% CO2. A screen of each tracer across the entire library using two different concentrations requires duplicate plates of transfected cells. Depending on the number of tracers being screened, transfections can be scaled up using the same ratios. The next day, for each tracer, four 20× screening solutions in tracer dilution buffer (Promega) were prepared: two duplicates at final concentration of 20 μM and two duplicates at a final concentration of 2 μM. A competing unmodified compound was added to one of each duplicate at a final concentration of 400 μM. The four resulting solutions were diluted 4-fold in Opti-MEM without serum or phenol red to generate 5× solutions (5 µM and 0.5 µM tracer +/− 100 μM competing compound). To screen the library, a BioTek MultiFlo FX liquid dispenser was used to dispense 22.5 µL of tracer solution to the top 4 rows and 22.5 µL tracer + competing compound solution to the 4 bottom rows. Plates were briefly mixed on an orbital shaker and incubated for 1.5 h at room temperature. […]
# AVPR1B = target: T2, AVPR1B (Homo sapiens, UniProt P47901); experiment: NanoBRET screen HiBiT-AVPR1B in HEK293; format: binding; conditions: AVPR1B
# T2 construct: purchased Promega (in-house HiBiT-GPCR construct library, NanoBRET)
# T2 sequence (P47901 1-424): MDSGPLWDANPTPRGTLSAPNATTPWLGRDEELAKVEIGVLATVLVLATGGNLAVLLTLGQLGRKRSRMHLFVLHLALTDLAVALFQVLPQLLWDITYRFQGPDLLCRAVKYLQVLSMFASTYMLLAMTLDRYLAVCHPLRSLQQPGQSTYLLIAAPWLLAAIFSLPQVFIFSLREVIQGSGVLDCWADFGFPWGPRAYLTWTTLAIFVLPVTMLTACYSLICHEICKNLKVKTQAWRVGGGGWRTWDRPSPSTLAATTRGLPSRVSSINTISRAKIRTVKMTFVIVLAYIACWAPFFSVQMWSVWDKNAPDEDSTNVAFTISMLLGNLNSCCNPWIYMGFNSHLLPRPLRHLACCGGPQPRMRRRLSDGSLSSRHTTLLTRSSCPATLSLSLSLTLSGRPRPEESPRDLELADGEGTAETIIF
# Procedure: as §1, §2
smiles,measurement,setting,value
CN1CCN(C2=Nc3cc(Cl)ccc3N(CC(=O)NCCOCCOCCOCCOCCNC(=O)CCc3ccc4n3[B-](F)(F)[N+]3=C(c5ccc[nH]5)C=CC3=C4)c3ccccc32)CC1 [Clozapine-c-2-NB590],NanoBRET Fold Response,CXCR3; 0.1μM tracer,1.01
same,NanoBRET Fold Response,CXCR3; 1μM tracer,0.76
same,NanoBRET Fold Response,AVPR1B; 0.1μM tracer,0.95
same,NanoBRET Fold Response,AVPR1B; 1μM tracer,0.84
O=C(CCOCCOCCOCCOCCNC(=O)CCc1ccc2n1[B-](F)(F)[N+]1=C(c3ccc[nH]3)C=CC1=C2)NCCCN1CCN(C2=Nc3ccccc3Oc3ccc(Cl)cc32)CC1 [Loxapine-a-2-NB590],NanoBRET Fold Response,CXCR3; tracer 0.1μM,1.04
same,NanoBRET Fold Response,CXCR3; tracer 1μM,1.26
same,NanoBRET Fold Response,AVPR1B; tracer 0.1μM,1.06
same,NanoBRET Fold Response,AVPR1B; tracer 1μM,0.96
COc1ccccc1N1CCN(CCCCN2C(=O)c3ccc(CNC(=O)CCOCCOCCOCCOCCNC(=O)CCc4ccc5n4[B-](F)(F)[N+]4=C(c6ccc[nH]6)C=CC4=C5)cc3C2=O)CC1 [NAN-190-2-NB590],NanoBRET Fold Response,CXCR3; tracer 0.1μM,0.94
COc1ccccc1N1CCN(CCCCN2C(=O)c3ccc(CNC(=O)CCOCCNC(=O)c4ccc(CNC(=O)CCc5ccc6n5[B-](F)(F)[N+]5=C(c7ccc[nH]7)C=CC5=C6)cc4)cc3C2=O)CC1 [NAN-190-3-NB590],NanoBRET Fold Response,CXCR3; tracer 0.1μM,0.97
same,NanoBRET Fold Response,CXCR3; tracer 1μM,1.01
same,NanoBRET Fold Response,AVPR1B; tracer 0.1μM,1.04
same,NanoBRET Fold Response,AVPR1B; tracer 1μM,1.04
O=C(CCc1ccc2n1[B-](F)(F)[N+]1=C(c3ccc[nH]3)C=CC1=C2)NCc1ccc(C(=O)NCCOCCC(=O)N[C@@H]2CC[C@@]3(O)[C@H]4Cc5ccc(O)c6c5[C@@]3(CCN4CC3CC3)[C@H]2O6)cc1 [Naltrexone-3-NB590],NanoBRET Fold Response,CXCR3; tracer 0.1μM,1.39
same,NanoBRET Fold Response,CXCR3; tracer 1μM,0.78
same,NanoBRET Fold Response,AVPR1B; tracer 0.1μM,1.19
same,NanoBRET Fold Response,AVPR1B; tracer 1μM,1.17
Cc1cc2c(s1)Nc1ccccc1N=C2N1CCN(CCCNC(=O)CCOCCOCCOCCOCCNC(=O)CCc2ccc3n2[B-](F)(F)[N+]2=C(c4ccc[nH]4)C=CC2=C3)CC1 [Olanzapine-a-2-NB590],NanoBRET Fold Response,CXCR3; tracer 0.1μM,1.05
same,NanoBRET Fold Response,CXCR3; tracer 1μM,0.89
same,NanoBRET Fold Response,AVPR1B; tracer 0.1μM,1.03
same,NanoBRET Fold Response,AVPR1B; tracer 1μM,1.17
O=C(CCc1ccc2n1[B-](F)(F)[N+]1=C(c3ccc[nH]3)C=CC1=C2)NCc1ccc(C(=O)NCCOCCOCCNCC(O)COc2cccc3ccccc23)cc1 (stereo not drawn) [Propranolol-3-NB590],NanoBRET Fold Response,CXCR3; 0.1μM,0.99
same,NanoBRET Fold Response,CXCR3; 1μM,0.90
same,NanoBRET Fold Response,AVPR1B; 0.1μM,0.90
same,NanoBRET Fold Response,AVPR1B; 1μM,1.04
O=C(CCc1ccc2n1[B-](F)(F)[N+]1=C(c3ccc[nH]3)C=CC1=C2)NCCOCCOCCNC(=O)OCCOCCN1CCN(C2=Nc3ccccc3Sc3ccccc32)CC1 [Quetiapine-a-2-NB590],NanoBRET Fold Response,CXCR3; tracer 0.1μM,1.00
same,NanoBRET Fold Response,CXCR3; tracer 1μM,1.14
same,NanoBRET Fold Response,AVPR1B; tracer 0.1μM,0.86
same,NanoBRET Fold Response,AVPR1B; tracer 1μM,1.01
Cc1nc2n(c(=O)c1CCN1CCC(c3noc4cc(F)ccc34)CC1)CCCC2OC(=O)NCCOCCOCCOCCOCCNC(=O)CCc1ccc2n1[B-](F)(F)[N+]1=C(c3ccc[nH]3)C=CC1=C2 (stereo not drawn) [Risperidone-2-NB590],NanoBRET Fold Response,CXCR3; tracer 0.1μM,1.06
same,NanoBRET Fold Response,CXCR3; tracer 1μM,0.91
same,NanoBRET Fold Response,AVPR1B; tracer 0.1μM,1.06
same,NanoBRET Fold Response,AVPR1B; tracer 1μM,0.98

# Source: article PMC8151276, “An Integrated Approach toward NanoBRET Tracers for Analysis of GPCR Ligand Engagement” (Molecules, 2021)
